Measurements from patent publication US20230091960A1, “CULTURE MEDIUM FOR PRIMARY CELLS OF ESOPHAGEAL SQUAMOUS CARCINOMA, AND CULTIVATION METHOD THEREFOR” (PRECEDO PHARMACEUTICALS CO., LTD, priority 2020, published 2023).

Columns and labels:
Type in all cases: cell-based, human
[1] = system: primary cells of esophageal squamous carcinoma; test: Effects of concentrations of the added factors or small molecule compounds on proliferation (Example 7); settings: for proliferation promoting effect when added to No. 7 medium: 10 μM, 3 μM, 1 μM, 0.3 μM, 0.1 μM, control No. 7 medium; for concentration at which the cell proliferation effect is most significant: added to No. 7 medium lacking this factor
Experimental: According to the same process as in Example 1, endoscopic tissue Sample 65, Sample 66, Sample 67, Sample 68 and Sample 69 were isolated to obtain primary cells of esophageal squamous carcinoma, and the obtained primary cells of esophageal squamous carcinoma were cultured by using No. 7 medium of Example 1. The resultants were inoculated into 12-well plate at a living cell density of 1×10^4/cm^2 (45,000 cells per well), and then the plate was added with NIH-3T3 cells that have been irradiated by γ-ray (irradiation dose 35Gy) at a cell density of 2×10^4/cm^2, which were then fully mixed. After surface disinfection, the plate was placed in a 37° C., 5% CO2 incubator (Thermo Fisher) for culture. When the cells expended to cover 85% of the plate, the 12-well plate was taken out, rinsed with 200 μL 0.25% trypsin (Gibco) for 1 minute. The liquid was removed by sucking, and 500 μL 0.05% trypsin (Gibco) was added to each well again. The resultant was placed in a 37° C., 5% CO2 incubator to react for 10 minutes, and the digestion can be terminated until it can be observed under the microscope (EVOS […], Invitrogen) that the cells have been completely digested. After being centrifuged at 1500 rpm for 4 minutes, the supernatant was discarded, and 1 mL of basic culture medium was added for resuspension. The total number of cells was obtained by counting with a flow imaging counter (JIMBIO FIL, Jiangsu Jimbio Technology Co., Ltd.). The obtained cells were used for the following cultivation experiments. The digested cell suspension was diluted with the above Formulations 1-8 and No. 7 medium in Example 1 respectively, and were seeded into a 24-well plate with 20,000 cells and 500 μL volume per well. When using the medium of Formulation 1, five concentration gradients of N2 additives with the final concentration of 1:400, 1:200, 1:100, 1:50 and 1:25 were prepared, respectively, and the prepared N2 additives were added respectively to a 24-well plate inoculated with primary cells, with 500 μL per well; the medium of Formulation 1 was used as the control hole (BC). When using the medium of Formulation 2, five concentration gradients of non-essential amino acids with the final concentration of 400 μM, 200 μM, 100 μM, 50 μM, 25 μM were prepared, respectively, and the prepared non-essential amino acids were added respectively to a 24-well plate inoculated with primary cells, with 500 μL per well; the medium of Formulation 2 was used as the control hole (BC). When using the medium of Formulation 3, five concentration gradients of glutamine with the final concentration of 8 mM, 4 mM, 2 mM, 1 mM, 0.5 mM were prepared, respectively, and the prepared glutamine were added respectively to a 24-well plate inoculated with primary cells, with 500 μL per well; the medium of Formulation 3 was used as the control hole (BC). When using the medium of Formulation 4, five concentration gradients of insulin with the final concentration of 40 μg/mL, 20 μg/mL, 10 μg/mL, 5 μg/mL, 2.5 μg/mL were prepared, respectively, and the prepared insulin were added respectively to a 24-well plate inoculated with primary cells, with 500 μL per well; the medium of Formulation 4 was used as the control hole (BC). When using the medium of Formulation 5, five concentration gradients of insulin-like growth factor 1 (IGF1) with the final concentration of 40 ng/mL, 20 ng/mL, 10 ng/mL, 5 ng/mL, 2.5 ng/mL were prepared, respectively, and the prepared insulin-like growth factor 1 (IGF1) were added respectively to a 24-well plate inoculated with primary cells, with 500 μL per well; the medium of Formulation 5 was used as the control hole (BC). […]

[2] = system: primary cells of esophageal squamous carcinoma; test: Effect of a single factor added to the basic culture medium on proliferation (Example 2); settings: Sample 57, 7th day; BM = DMEM/F12 + 10 μM Y27632 + 100 mg/mL Primocin; factor at its No. 7 medium concentration
Experimental: To the basic culture mediums of Example 1 (DMEM/F12 medium+10 μM Y27632+100 mg/mL Primocin) were separatedly added 1:50 ratio of N2 additive, 20 μg/mL insulin, 7 μg/mL bovine pituitary extract, 2 mM glutamine, 400 μM non-essential amino acids, 0.4 μg/mL hydrocortisone, 5 ng/mL insulin-like growth factor 1, respectively, to prepare the culture mediums of this Example. According to the same process as in Example 1, endoscopic tissue Sample 57, Sample 58, Sample 59, Sample 60 and Sample 61 were isolated to obtain primary cells of esophageal squamous carcinoma, and the obtained primary cells of esophageal squamous carcinoma were cultured by using the respective culture mediums prepared in this Example, as well as BM medium and No. 7 medium (EM) of Example 1. The resultants were inoculated into 48-well plate at a living cell density of 1×10^4/cm^2 (10,000 cells per well), and then the plate was added with NIH-3T3 cells that have been irradiated by γ-ray (irradiation dose 35Gy) at a cell density of 2×10^4/cm^2, which were then fully mixed. After surface disinfection, the plate was placed in a 37° C., 5% CO2 incubator (Thermo Fisher) for culture. On the 7th day of culture, the 48-well plate was taken out, rinsed with 200 μL 0.25% trypsin (Gibco) for 1 minute. The liquid was removed by sucking, and 500 μL 0.05% trypsin (Gibco) was added to each well again. The resultant was placed in a 37° C., 5% CO2 incubator to react for 10 minutes, and the digestion can be terminated until it can be observed under the microscope (EVOS […], Invitrogen) that the cells have been completely digested. After being centrifuged at 1500 rpm for 4 minutes, the supernatant was discarded, and 1 mL of basic culture medium was added for resuspension. The total number of cells was obtained by counting with a flow imaging counter (JIMBIO FIL, Jiangsu Jimbio Technology Co., Ltd.). The effect of combination of two factors in the culture medium for primary cells of esophageal squamous carcinoma on the proliferation of primary cells of esophageal squamous carcinoma was evaluated. The results obtained from primary cells of esophageal squamous carcinoma isolated from endoscopic tissue Sample 57 are shown in FIG. 2.

[3] = system: primary cells of esophageal squamous carcinoma; test: Effect of adding other factors to EM medium on proliferation (Example 3); settings: Sample 62, 10 ng/ml factor added to No. 7 medium (EM), cultured for 7 days
Experimental: To No. 7 mediums (EM) of Example 1 were separately added 10 ng/ml fibroblast growth factor 2 (FGF2), 10 ng/ml fibroblast growth factor 10 (FGF10), 10 ng/ml fibroblast growth factor 7 (FGF7) or the combination of 10 ng/ml FGF2, 10 ng/ml FGF10 and 10 ng/ml FGF7, respectively, to prepare the mediums of this Example.
According to the same process as in Example 1, endoscopic tissue Sample 62 and Sample 63 were isolated to obtain primary cells of esophageal squamous carcinoma, and the obtained primary cells of esophageal squamous carcinoma were cultured by using the respective culture mediums prepared in this Example, as well as No. 7 medium (EM) of Example 1. The resultants were inoculated into 48-well plate with at a cell density of 1×10^4/cm^2 (10,000 cells per well), and then the plate was added with NIH-3T3 cells that have been irradiated by γ-ray (irradiation dose 35Gy) at a cell density of 2×10^4/cm^2, which were then fully mixed. After surface disinfection, the plate was placed in a 37° C., 5% CO2 incubator (Thermo Fisher) for culture. On the 7th day of culture, the 48-well plate was taken out, rinsed with 200 μL 0.25% trypsin (Gibco) for 1 minute. The liquid was removed by sucking, and 500 μL 0.05% trypsin (Gibco) was added to each well again. The resultant was placed in a 37° C., 5% CO2 incubator to react for 10 minutes, and the digestion can be terminated until it can be observed under the microscope (EVOS M500, Invitrogen) that the cells have been completely digested. After being centrifuged at 1500 rpm for 4 minutes, the supernatant was discarded, and 1 mL of No. 7 medium (EM) was added for resuspension. The total number of cells was obtained by counting with a flow imaging counter (JIMBIO FIL, Jiangsu Jimbio Technology Co., Ltd.). The effect of adding other factors to the culture medium for primary cells of esophageal squamous carcinoma of the invention on the proliferation of primary cells of esophageal squamous carcinoma was evaluated. […]

## CC(C)Oc1ccc(-c2cnc3c(-c4ccnc5ccccc45)cnn3c2)cc1 [DMH-1]
[1]
  proliferation promoting effect when added to No. 7 medium: do not show significant proliferation promoting effect

## C[C@]12CCC(=O)C=C1CC[C@@H]1[C@@H]2[C@@H](O)C[C@@]2(C)[C@H]1CC[C@]2(O)C(=O)CO [hydrocortisone]
[1]; five concentration gradients
  concentration at which the cell proliferation effect is most significant: 400 ng/mL
[2]
  cell proliferation efficiency when one factor is added to the basic culture medium: better than that of the basic culture medium, but was not as good as that of the No. 7 medium (EM)

## Cc1ccc2nc(NC(=O)CSc3nc4c(c(=O)n3-c3ccccc3)SCC4)sc2c1 [IWP2]
[1]
  proliferation promoting effect when added to No. 7 medium: do not show significant proliferation promoting effect

## NC(=O)CC[C@H](N)C(=O)O [glutamine]
[1]; tested 0.5-8 mM
  concentration at which the cell proliferation effect is most significant: 2 mM
[2]
  cell proliferation efficiency when one factor is added to the basic culture medium: better than that of the basic culture medium, but was not as good as that of the No. 7 medium (EM)

## Cc1c[nH]c(-c2cnc(NCCNc3ccc(C#N)cn3)nc2-c2ccc(Cl)cc2Cl)n1 [CHIR99021]
[1]
  proliferation promoting effect when added to No. 7 medium: do not show significant proliferation promoting effect

## insulin-like growth factor 1: insulin-like growth factor 1 (IGF-1, Sino Biological)
[1]; five concentration gradients
  concentration at which the cell proliferation effect is most significant: 5 ng/mL
[2]
  cell proliferation efficiency when one factor is added to the basic culture medium: better than that of the basic culture medium, but was not as good as that of the No. 7 medium (EM)

## insulin
[1]; five concentration gradients
  concentration at which the cell proliferation effect is most significant: 20 ng/mL
[2]
  cell proliferation efficiency when one factor is added to the basic culture medium: better than that of the basic culture medium, but was not as good as that of the No. 7 medium (EM)

## Cc1cccc(-c2nn(C(=S)Nc3ccccc3)cc2-c2ccnc3ccccc23)n1 [A83-01]
[1]
  proliferation promoting effect when added to No. 7 medium: do not show significant proliferation promoting effect

## NC(=O)c1ccc(-c2nc(-c3ccc4c(c3)OCO4)c(-c3ccccn3)[nH]2)cc1 [SB431542]
[1]
  proliferation promoting effect when added to No. 7 medium: do not show significant proliferation promoting effect

## FGF2: fibroblast growth factor 2
[3]
  effect on proliferation as compared with EM medium (ratio of cell numbers): no significant effect for promoting proliferation

## c1ccc2c(-c3cnn4cc(-c5ccc(N6CCNCC6)cc5)cnc34)ccnc2c1 [LDN193189]
[1]
  proliferation promoting effect when added to No. 7 medium: do not show significant proliferation promoting effect

## C[C@H](NC(=O)Cc1cc(F)cc(F)c1)C(=O)N[C@H](C(=O)OC(C)(C)C)c1ccccc1 [DAPT]
[1]
  proliferation promoting effect when added to No. 7 medium: do not show significant proliferation promoting effect

## C[C@@H](N)[C@H]1CC[C@H](C(=O)Nc2ccncc2)CC1 [Y27632]
[1]; five concentration gradients
  concentration at which the cell proliferation effect is most significant: 0.01 mM

B1: FGF7: fibroblast growth factor 7 (protein, UniProt P21781 32-194, looked up)
Fibroblast growth factor 7: CNDMTPEQMATNVNCSSPERHTRSYDYMEGGDIRVRRLFCRTQWYLRIDKRGKVKGTQEMKNNYNIMEIRTVAVGIVAIKGVESEFYLAMNKEGKLYAKKECNEDCNFKELILENHYNTYASAKWTHNGGEMFVALNQKGIPVRGKKTKKEQKTAHFLPMAIT
[3]
  effect on proliferation as compared with EM medium (ratio of cell numbers): inhibited

B2: FGF10: fibroblast growth factor 10 (protein, UniProt O15520 38-208, looked up)
Fibroblast growth factor 10: QALGQDMVSPEATNSSSSSFSSPSSAGRHVRSYNHLQGDVRWRKLFSFTKYFLKIEKNGKVSGTKKENCPYSILEITSVEIGVVAVKAINSNYYLAMNKKGKLYGSKEFNNDCKLKERIEENGYNTYASFNWQHNGRQMYVALNGKGAPRRGQKTRRKNTSAHFLPMVVHS
[3]
  effect on proliferation as compared with EM medium (ratio of cell numbers): no significant effect for promoting proliferation
